In PubChem BioAssay (NCI) one finds TGI and GI50 data, which are given here for ten compounds.

Test systems include NCI-H226 lung; HCC-2998 colon; MDA-MB-435; SW-620 colon; TK-10 renal; SK-OV-3 ovarian; KM12 colon; NCI/ADR-RES ovarian; ACHN renal; A498 renal.
Assay in all cases: DTP human tumour cell line panel, 48 h

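Values below derive from 48-hour exposures of cells grown in 96-well plates, with endpoints linearly interpolated between the two concentrations bracketing the appropriate inhibition level. Here, GI50 denotes the concentration required for 50% inhibition of growth. The concentration for full growth arrest is given as TGI.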

For orientation: TGI means the concentration at which net growth stops. For `O=C1C(Br)=CC2(C=C1Br)CCNc1c(O)c3c4c(c12)=NCCC=4C=N3`, the concentration for total growth inhibition (TGI) in the test on NCI-H226 lung is 2.74 µM; with HCC-2998 colon, 1.21 µM; in the test with MDA-MB-435, 0.245 µM; with SW-620 colon, 0.105 µM; with TK-10 renal it was 0.792 µM; in the test with SK-OV-3 ovarian it was 4.26 µM. For the same compound, the total growth inhibition concentration (TGI) in the test with KM12 colon was 1.61 µM; in the test on NCI/ADR-RES ovarian it was 0.58 µM; in the test on ACHN renal, 0.307 µM; with A498 renal, 3.56 µM.

On to `COc1cc(/C=C/c2ccccn2)cc(OC)c1OC`, for which the total growth inhibition concentration (TGI) in the test on NCI-H226 lung, with HCC-2998 colon, in the test with MDA-MB-435, in the test on SW-620 colon, in the test with TK-10 renal and in the test on SK-OV-3 ovarian was greater than 10 µM throughout. Besides, the TGI in the test with KM12 colon, in the test on NCI/ADR-RES ovarian, with ACHN renal and in the test on A498 renal was greater than 10 µM in each case.

By GI50 is commonly meant the concentration at which growth is held to half of that of the control. In the case of `O=C(Nc1ccccc1)Nc1ccc(Cl)c(Cl)c1`, the GI50 in the test on NCI-H226 lung was 3.06 µM; in the test on HCC-2998 colon, 4.03 µM; in the test on MDA-MB-435 it was 3.26 µM; in the test with SW-620 colon it was 3.58 µM; with TK-10 renal, 3.83 µM; with SK-OV-3 ovarian, 5.52 µM. In addition, the GI50 is 2.64 µM in the test with KM12 colon, 3.05 µM in the test on NCI/ADR-RES ovarian, 3.59 µM with ACHN renal and 5.04 µM in the test with A498 renal. Further, the TGI was greater than 100 µM in the test on NCI-H226 lung; greater than 100 µM in the test on HCC-2998 colon; 33.9 µM with MDA-MB-435; greater than 100 µM in the test with SW-620 colon; 36.2 µM in the test on TK-10 renal; greater than 100 µM with SK-OV-3 ovarian. In addition, the TGI in the test on KM12 colon stood at 20.5 µM; with NCI/ADR-RES ovarian, 83.8 µM; in the test with ACHN renal it was 97.1 µM; in the test on A498 renal, 68.5 µM.

On to `COc1ccc(/C=C2\CCC(Cc3ccccc3)(CN(C)C)C2=O)cc1` (centres undefined), for which the TGI in the test on NCI-H226 lung was greater than 96.3 µM; in the test on HCC-2998 colon, greater than 100 µM; in the test with MDA-MB-435, greater than 100 µM; in the test on SW-620 colon it was greater than 73.3 µM; in the test on TK-10 renal, greater than 100 µM; in the test with SK-OV-3 ovarian it was greater than 100 µM. Moreover, the TGI in the test on KM12 colon, in the test on NCI/ADR-RES ovarian, in the test with ACHN renal and with A498 renal was greater than 100 µM throughout.

As for `CC(C)COC(c1ccc2c(c1)OCO2)C(C)Br` (centres undefined), the TGI with NCI-H226 lung is 70.7 µM; in the test on HCC-2998 colon, 38.6 µM; in the test with MDA-MB-435 it was 51.7 µM; with SW-620 colon, greater than 100 µM; in the test with TK-10 renal, greater than 100 µM; with SK-OV-3 ovarian, 80 µM. The TGI in the test with KM12 colon is 55 µM; with NCI/ADR-RES ovarian it was 90.2 µM; in the test on ACHN renal, greater than 100 µM; in the test on A498 renal, greater than 100 µM.

Regarding `O=C(/C=C/c1ccccc1)OCC1=C[C@@H](O)[C@@H]2C=CO[C@@H](OC3OC(CO)C(O)C(O)C3O)[C@H]12` (some centres undefined), the TGI with NCI-H226 lung, in the test on HCC-2998 colon, in the test on MDA-MB-435, with SW-620 colon, in the test on TK-10 renal and with SK-OV-3 ovarian was greater than 100 µM each time. The TGI with KM12 colon, with NCI/ADR-RES ovarian, in the test with ACHN renal and in the test on A498 renal was greater than 100 µM in each case.

For `Nc1ccc(C(=O)Nc2ccccc2N)cc1`, the TGI with NCI-H226 lung was greater than 100 µM; with HCC-2998 colon, greater than 100 µM; in the test on MDA-MB-435 it was greater than 100 µM; in the test with SW-620 colon, greater than 100 µM; with TK-10 renal it was greater than 63.1 µM; with SK-OV-3 ovarian, greater than 100 µM. Further, the TGI with KM12 colon is greater than 100 µM; in the test on NCI/ADR-RES ovarian, 19.6 µM; in the test on ACHN renal it was greater than 100 µM; in the test on A498 renal, greater than 100 µM.

As for `COC(=O)[C@]12CC[C@@H](C)[C@H](C)[C@@H]1C1=CC[C@@H]3[C@@]4(C)CC(=O)[C@H](O)[C@@](C)(CO)[C@@H]4C(=O)C[C@@]3(C)[C@]1(C)CC2`, the GI50 is 11.9 µM in the test on NCI-H226 lung; 16.9 µM in the test with HCC-2998 colon; 12.6 µM in the test on MDA-MB-435; 15.1 µM in the test on SW-620 colon; 19.7 µM in the test on TK-10 renal; 16.6 µM with SK-OV-3 ovarian. For the same compound, the GI50 in the test with KM12 colon is 10.8 µM; with NCI/ADR-RES ovarian, 12.1 µM; in the test with ACHN renal, 12.9 µM; in the test on A498 renal, 19.4 µM. The concentration for total growth inhibition (TGI) in the test on NCI-H226 lung came to 35.3 µM; in the test with HCC-2998 colon, 33.9 µM; with MDA-MB-435 it was 25.1 µM; with SW-620 colon it was 30.6 µM; in the test on TK-10 renal, 34 µM; with SK-OV-3 ovarian, 30.5 µM. Besides, the TGI with KM12 colon was 23.6 µM; in the test with NCI/ADR-RES ovarian, 32.4 µM; in the test with ACHN renal it was 28.3 µM; in the test on A498 renal, 33.9 µM.

In the case of `Oc1cccc(-c2nc(-c3ccccc3)[nH]c2-c2ccncc2)c1`, the GI50 with NCI-H226 lung was greater than 19 µM; in the test on HCC-2998 colon it was 11.7 µM; in the test on MDA-MB-435 it was 4.31 µM; in the test on SW-620 colon it was 9.39 µM; with TK-10 renal, 16.5 µM; in the test with SK-OV-3 ovarian it was 9.29 µM. Also, the GI50 with KM12 colon was 13 µM; in the test with NCI/ADR-RES ovarian it was greater than 25 µM; in the test with ACHN renal it was 9.08 µM; in the test with A498 renal, 6.07 µM. The TGI was greater than 25 µM with NCI-H226 lung; greater than 25 µM in the test with HCC-2998 colon; greater than 25 µM in the test on MDA-MB-435; greater than 23.4 µM in the test with SW-620 colon; greater than 25 µM in the test with TK-10 renal; greater than 25 µM in the test on SK-OV-3 ovarian. Moreover, the concentration for total growth inhibition (TGI) in the test on KM12 colon was greater than 25 µM; in the test with NCI/ADR-RES ovarian, greater than 25 µM; in the test with ACHN renal, greater than 25 µM; in the test on A498 renal it was 17.4 µM.

Take `Cc1cn2c(/C=C3/C(=O)Nc4ccc(Cl)cc43)c(C)nc2s1`: the GI50 in the test on NCI-H226 lung was 11 µM; with HCC-2998 colon, less than 0.024 µM; in the test on MDA-MB-435 it was 2.12 µM; in the test with SW-620 colon, 0.22 µM; in the test on TK-10 renal, 2.42 µM; in the test on SK-OV-3 ovarian, 0.384 µM. Moreover, the GI50 in the test on KM12 colon was 1.17 µM; in the test with NCI/ADR-RES ovarian, 0.0211 µM; in the test on ACHN renal, 0.185 µM; in the test with A498 renal it was 0.1 µM. In addition, the TGI with NCI-H226 lung was greater than 90.6 µM; in the test with HCC-2998 colon, 1.04 µM; in the test with MDA-MB-435, 5.41 µM; in the test on SW-620 colon, greater than 67.7 µM; with TK-10 renal it was 17.5 µM; with SK-OV-3 ovarian, 24.2 µM. In addition, the results for the TGI in the test with KM12 colon, with ACHN renal and with A498 renal were 24 µM, 48.4 µM and 0.645 µM, respectively.
